According to patent US5352608A (priority 1992, dated 1994):
Entries after “also recorded” stand apart in the source; their conditions may differ. Read-outs that look alike come from different tables or passages of the source.

Columns and labels:
[1] = system: Rhodobacter sphaeroides 2.4.1; assay type: cell-based
R. sphaeroides 2.4.1 = assay type: cell-based, Rhodobacter sphaeroides
E. coli = settings: exogenously supplied L-methionine; Scala and Williams; cited from earlier work
[2] = system: Rhodopseudomonas palustris 1e5; assay: Intrinsic HLR to TeO3^2- (MIC); assay type: cell-based
[3] = Table 4, photoheterotrophic, 2 mM PO4^3-, 10 W/m^2
[4] = Table 4, photoheterotrophic, SMM succinate, 10 W/m^2

[K+].[O]=[Mn](=[O])(=[O])[O-] [KMnO4]
MIC [1]: < 20 µg/mL | MIC Low-PO4^3- Medium [1]: < 10 µg/mL | MIC Standard Medium [1]: 20 µg/mL

O=S([O-])[O-].[Na+].[Na+] [Na2 SO3]
Effect of extracellular phosphate on resistance [1]: unaffected by extracellular phosphate levels | MIC Low-PO4^3- Medium [1]: 500 µg/mL | MIC Standard Medium [1]: 600 µg/mL | Resistance in words [1]: resistance was shown | Gas evolution in words (R. sphaeroides 2.4.1): no gas was evolved | Reduction to elemental state (R. sphaeroides 2.4.1): not reduced to their elemental states

N[C@@H](CCC(=O)N[C@@H](CS)C(=O)NCC(=O)O)C(=O)O [glutathione, reference compound]
Effect of medium supplement on HLR [1]: Neither cystine, glutathione nor thioglycollate, however, decreased HLR

N[C@@H](CS)C(=O)O [L-cysteine, reference compound]
Effect of medium supplement on HLR [1]: solely responsible for the increased sensitivity to TeO3^2-

Na2 HAsO4
Effect of extracellular phosphate on resistance [1]: unaffected by extracellular phosphate levels | Resistance in words [1]: resistance was shown | MIC Low-PO4^3- Medium [1, 3]: 1600 µg/mL | MIC Standard Medium [1, 4]: 1500 µg/mL | Gas evolution in words (R. sphaeroides 2.4.1): no gas was evolved | Reduction to elemental state (R. sphaeroides 2.4.1): not reduced to their elemental states

O=C(O)CS [thioglycollate, reference compound]
Effect of medium supplement on HLR [1]: Neither cystine, glutathione nor thioglycollate, however, decreased HLR

[O-2].[O-2].[O-2].[Sb+3].[Sb+3] [Sb2 O3]
Effect on cell growth as saturated solution [1]: did not affect cell growth | MIC Low-PO4^3- Medium [1]: sat,d sol'n | MIC Standard Medium [1]: sat'd sol'n | Resistance in words [1]: shows resistance

[O-][I+3]([O-])([O-])O [IO4^-]
Decrease in resistance when extracellular phosphate reduced ten-fold [1]: three- to four-fold | Intrinsic resistance relative to γ-3 Proteobacteria [1]: twenty-fold | Resistance in words [1]: resistance was shown | Gas evolution in words (R. sphaeroides 2.4.1): no gas evolution was observed | Reduction to elemental state (R. sphaeroides 2.4.1): Neither IO4^-, SiO3^2-, nor SiO^42- was reduced to its elemental state

[O]=[Cr](=[O])=[O] [CrO3]
MIC [1]: < 20 µg/mL | MIC Low-PO4^3- Medium [1]: < 10 µg/mL | MIC Standard Medium [1]: 20 µg/mL

NaSiO4
MIC Low-PO4^3- Medium [1]: 150 µg/mL | MIC Standard Medium [1]: 400 µg/mL

CSCC[C@H](N)C(=O)O [L-methionine, reference compound]
TeO3^2- resistance enhancement by L-methionine (E. coli): two-fold | Effect of medium supplement on HLR [1]: no affect on HLR to TeO3^2-

[Na+].[Na+].[O]=[W](=[O])([O-])[O-] [Na2 WO4]
Effect of extracellular phosphate on resistance [1]: unaffected by extracellular phosphate levels | Resistance in words [1]: resistance was shown | MIC Low-PO4^3- Medium [1, 3]: 1600 µg/mL | MIC Standard Medium [1, 4]: 1600 µg/mL | Gas evolution in words (R. sphaeroides 2.4.1): no gas was evolved | Reduction to elemental state (R. sphaeroides 2.4.1): not reduced to their elemental states

N[C@@H](CSSC[C@H](N)C(=O)O)C(=O)O [cystine, reference compound]
Effect of medium supplement on HLR [1]: Neither cystine, glutathione nor thioglycollate, however, decreased HLR

[Na+].[Na+].[O]=[Cr](=[O])([O-])[O-] [Na2 CrO4]
MIC [1]: < 20 µg/mL | MIC Low-PO4^3- Medium [1]: 20 µg/mL | MIC Standard Medium [1]: 10 µg/mL

[O]=[Mo](=[O])=[O] [MoO3]
Effect on cell growth as saturated solution [1]: did not affect cell growth | MIC Low-PO4^3- Medium [1]: sat'd sol'n | MIC Standard Medium [1]: sat'd sol'n | Resistance in words [1]: shows resistance

[Na+].[Na+].[O]=[Mo](=[O])([O-])[O-] [Na2 MoO4]
Effect of extracellular phosphate on resistance [1]: unaffected by extracellular phosphate levels | Resistance in words [1]: resistance was shown | MIC Low-PO4^3- Medium [1, 3]: 1500 µg/mL | MIC Standard Medium [1, 4]: 1400 µg/mL | Gas evolution in words (R. sphaeroides 2.4.1): no gas was evolved | Reduction to elemental state (R. sphaeroides 2.4.1): not reduced to their elemental states

[O]=[Sn]=[O] [SnO2]
Effect on cell growth as saturated solution [1]: did not affect cell growth | MIC Low-PO4^3- Medium [1]: sat'd sol'n | MIC Standard Medium [1]: sat'd sol'n | Resistance in words [1]: shows resistance

O=[Se](=O)([O-])[O-].[Na+].[Na+] [Na2 SeO4]
MIC Low-PO4^3- Medium [1]: 100 µg/mL | MIC Standard Medium [1]: 150 µg/mL | Relative toxicity [1]: SeO4^2- >TeO4^2- >TeO3^2- >SeO3^2- >Rh2 O3.5H2 O | Resistance in words [1]: High level resistance | Appearance of cells / metal deposit (R. sphaeroides 2.4.1): bright red in color

Na2 SiO4
Decrease in resistance when extracellular phosphate reduced ten-fold [1]: three- to four-fold | Intrinsic resistance relative to γ-3 Proteobacteria [1]: twenty-fold | MIC Low-PO4^3- Medium [1]: 100 µg/mL | MIC Standard Medium [1]: 300 µg/mL | Resistance in words [1]: resistance was shown | Gas evolution in words (R. sphaeroides 2.4.1): no gas evolution was observed | Reduction to elemental state (R. sphaeroides 2.4.1): Neither IO4^-, SiO3^2-, nor SiO^42- was reduced to its elemental state

Na2 SnO4
Effect of extracellular phosphate on resistance [1]: unaffected by extracellular phosphate levels | MIC Low-PO4^3- Medium [1]: 800 µg/mL | MIC Standard Medium [1]: 800 µg/mL | Resistance in words [1]: resistance was shown | Gas evolution in words (R. sphaeroides 2.4.1): no gas was evolved | Reduction to elemental state (R. sphaeroides 2.4.1): not reduced to their elemental states

[NH4+].[O]=[V](=[O])[O-] [NH4 VO3]
Effect on cell growth as saturated solution [1]: did not affect cell growth | MIC Low-PO4^3- Medium [1]: sat'd sol'n | MIC Standard Medium [1]: sat'd sol'n | Resistance in words [1]: shows resistance

O.O.O.O.O.[O]=[Rh][O][Rh]=[O] [Rh2 O3.5H2 O, rhodium sesquioxide]
Effect on cell growth as saturated solution [1]: did not affect cell growth | MIC Low-PO4^3- Medium [1]: sat'd sol'n | MIC Standard Medium [1]: sat'd sol'n | Relative toxicity [1]: SeO4^2- >TeO4^2- >TeO3^2- >SeO3^2- >Rh2 O3.5H2 O | Resistance in words [1]: High level resistance; also recorded: shows resistance | Appearance of cells / metal deposit (R. sphaeroides 2.4.1): grayish bronze

O=[Si]([O-])[O-].[Na+].[Na+] [Na2 SiO3]
Decrease in resistance when extracellular phosphate reduced ten-fold [1]: three- to four-fold | Intrinsic resistance relative to γ-3 Proteobacteria [1]: twenty-fold | MIC Low-PO4^3- Medium [1]: 100 µg/mL | MIC Standard Medium [1]: 400 µg/mL | Resistance in words [1]: resistance was shown | Gas evolution in words (R. sphaeroides 2.4.1): no gas evolution was observed | Reduction to elemental state (R. sphaeroides 2.4.1): Neither IO4^-, SiO3^2-, nor SiO^42- was reduced to its elemental state

O=[Se]([O-])[O-].[Na+].[Na+] [Na2 SeO3]
MIC Low-PO4^3- Medium [1]: 500 µg/mL | MIC Standard Medium [1]: 800 µg/mL | Relative toxicity [1]: SeO4^2- >TeO4^2- >TeO3^2- >SeO3^2- >Rh2 O3.5H2 O | Resistance in words [1]: High level resistance | Appearance of cells / metal deposit (R. sphaeroides 2.4.1): bright red in color

O=[Te](=O)([O-])[O-].[K+].[K+] [K2 TeO4]
Intrinsic resistance relative to E. coli [2]: 40 times | MIC Low-PO4^3- Medium [1]: 500 µg/mL | MIC Standard Medium [1]: 500 µg/mL | Relative toxicity [1]: SeO4^2- >TeO4^2- >TeO3^2- >SeO3^2- >Rh2 O3.5H2 O | Resistance in words [1]: High level resistance | Appearance of cells / metal deposit (R. sphaeroides 2.4.1): intracellular accumulation of a dense metal deposit | Gas evolution in words (R. sphaeroides 2.4.1): Copious gas evolution
